US20090048214A1, “Methods for Treating Renal Tumors Using 2, 4-Pyrimidinediamine Drug and Prodrug Compounds” (RIGEL PHARMACEUTICALS, INC, priority 2006, published 2009)

Columns and labels:
[1] = detailed in US2006/0211657 A1; cited from earlier work
[2] = system: A498 renal carcinoma cells; experiment: A498 renal carcinoma subcutaneous xenograft study; type: in vivo, NCR nu/nu female mice
Procedure: NCR nu/nu female mice (8-9 weeks old, Harlan Laboratories, Madison, Wis.) were injected subcutaneously on the right hind flank with 5×10^7 A498 renal carcinoma cells in a 50:50 mixture of cells in PBS and Matrigel® (Cat# 356234, LDEV negative, BD Biosciences, Boston, Mass.). Tumor growth was determined by measuring the tumor in two dimensions (L×W) with electronic calipers (Ultra Cal IV, Fred V Fowler Co, Newton, Mass.). Volume was calculated using Study Director Animal Study Management Software (Studylog Systems, South San Francisco, Calif.) as follows: V=(L×W^2)/2,where L and W are the tumor length and width, respectively. Animals were randomized by stratified tumor size and treatment was initiated when the average tumor size was approximately 82 mm^3 (Study Day 0, 17 days post-injection). Test compound was administered ad libitum in the feed as a formulation of 0, 0.5, 2, or 3 g Compound A per kg of AIN-76A rodent diet (Research Diets, Inc, New Brunswick, N.J.). Animals were weighed and tumors measured twice weekly from the day of cell injection to study termination.

[3] = system: RXF-393 kidney tumor fragments; experiment: RXF-393 renal carcinoma orthotopic xenograft study; type: in vivo, Nu/nu mice; conditions: for median tumor weight: following 16 days of treatment, vehicle 485 mg
Procedure: RXF-393 kidney tumor fragments were implanted intrarenally into Nu/nu mice. On days 5-20 post-implantation animals were fed the Research Diet chow containing Compound A at the following dose levels: 0 g/kg (control), 0.5 g/kg (expected dose 75 mg/kg/day), 2.0 g/kg (expected dose 300 mg/kg/day), or 3.0 g/kg (expected dose 450 mg/kg/day). Tumors were allowed to grow orthotopically, body weights were measured twice weekly, and the animals were sacrificed on Day 23. Both the implanted kidney and the unimplanted kidney were weighed, and the tumor weight is expressed as the difference in kidney weights for each animal.

In the case of `COc1cc(Nc2ncc(F)c(Nc3ccc4c(n3)N(COP(=O)(O)O)C(=O)C(C)(C)O4)n2)cc(OC)c1OC` [Compound A], the “metabolism of prodrug in vivo” value [1] is listed as “metabolize in vivo to the corresponding active 2,4-pyrimidinediamine compound, Compound 1”, the Mean body weights ([2]; 0, 0.5, 2.0, 3.0 g Compound A/kg feed groups) is listed as “not different among the groups” and the “effect on tumor growth, dose dependence” value ([2]; 0.5, 2.0, 3.0 g Compound A/kg feed) is listed as “dose-dependent effect on tumor growth was observed”. The “%T/C” value ([2]; 2.0 g Compound A/kg feed, Day 23) was 62%, the mean tumor volume ([2]; 2.0 g Compound A/kg feed, by Day 23, control 665, p>0.05) was 485 mm^3 and the mean tumor volume ([2]; 3.0 g Compound A/kg feed ad libitum, after 24 days of treatment, vehicle 665, p<0.05) was 372 mm^3. For the same compound, the “median change in tumor volume, treated relative to control (% T/C)” value ([2]; 3.0 g Compound A/kg feed, after 24 days of treatment) was 35%, the “reduction in tumor weight vs vehicle” value ([3]; high (3 g/kg) and mid (2 g/kg) dose groups, 16 days of treatment) was ~10 fold and the median tumor weight ([3]; high dose 3 g/kg food (450 mg/kg/dose), p<0.0001) was 63 mg. The “reduction in median tumor weight compared with vehicle” value ([3]; low dose group (75 mg/kg/dose, 0.5 g Compound A/kg food)) was “approximately 25%” and the median tumor weight ([3]; mid dose 2 g/kg food (300 mg/kg/dose), p<0.0006) was 74 mg.
